Measured values as given in the kinase profiling compilation of Christmann-Franck et al. (2016).

Experiments:
Test in all cases: radiometric filter-binding kinase assay, Kinase HotSpot
Settings in all cases: compound 0.5 µM; ATP 10 µM
BLK (human) = BLK (human) (UniProt P51451)
BRSK2 (human) = BRSK2 (human) (UniProt Q8IWQ3)
CDK4 CCND1 (human) = CDK4 CCND1 (human) (UniProt P24385+P11802)
CHEK2 (human) = CHEK2 (human) (UniProt O96017)
CLK4 (human) = CLK4 (human) (UniProt Q9HAZ1)
CSF1R (human) = CSF1R (human) (UniProt P07333)
CSNK1D (human) = CSNK1D (human) (UniProt P48730)
CSNK2A2 (human) = CSNK2A2 (human) (UniProt P19784)
DAPK2 (human) = DAPK2 (human) (UniProt Q9UIK4)
DDR2 (human) = DDR2 (human) (UniProt Q16832)
DYRK1A (human) = DYRK1A (human) (UniProt Q13627)
EPHA5 (human) = EPHA5 (human) (UniProt P54756)
EPHB4 (human) = EPHB4 (human) (UniProt P54760)
ERBB2 (human) = ERBB2 (human) (UniProt P04626)
FRK (human) = FRK (human) (UniProt P42685)
GRK4 (human) = GRK4 (human) (UniProt P32298)
HIPK4 (human) = HIPK4 (human) (UniProt Q8NE63)
IKBKE (human) = IKBKE (human) (UniProt Q14164)
MAP2K1 (human) = MAP2K1 (human) (UniProt Q02750)
MAP3K14 (human) = MAP3K14 (human) (UniProt Q99558)
MAP4K4 (human) = MAP4K4 (human) (UniProt O95819)
MAPKAPK5 (human) = MAPKAPK5 (human) (UniProt Q8IW41)
MARK2 (human) = MARK2 (human) (UniProt Q7KZI7)
MERTK (human) = MERTK (human) (UniProt Q12866)
MUSK (human) = MUSK (human) (UniProt O15146)
NEK6 (human) = NEK6 (human) (UniProt Q9HC98)
NEK9 (human) = NEK9 (human) (UniProt Q8TD19)
PAK1 (human) = PAK1 (human) (UniProt Q13153)
PASK (human) = PASK (human) (UniProt Q96RG2)
PDGFRA (human) = PDGFRA (human) (UniProt P16234)
PIM1 (human) = PIM1 (human) (UniProt P11309)
PIM2 (human) = PIM2 (human) (UniProt Q9P1W9)
PRKD1 (human) = PRKD1 (human) (UniProt Q15139)
RPS6KA5 KD2 (human) = RPS6KA5 KD2 (human) (UniProt O75582)
SRMS (human) = SRMS (human) (UniProt Q9H3Y6)
SRPK2 (human) = SRPK2 (human) (UniProt P78362)
TGFBR2 (human) = TGFBR2 (human) (UniProt P37173)
TSSK2 (human) = TSSK2 (human) (UniProt Q96PF2)
ULK2 (human) = ULK2 (human) (UniProt Q8IYT8)
WNK2 (human) = WNK2 (human) (UniProt Q9Y3S1)
MINK1 (human) = MINK1 (human) (UniProt Q8N4C8)
MAPK9 (human) = MAPK9 (human) (UniProt P45984)

Chain of BRSK2 (human) (Q8IWQ3 whole entry, looked up): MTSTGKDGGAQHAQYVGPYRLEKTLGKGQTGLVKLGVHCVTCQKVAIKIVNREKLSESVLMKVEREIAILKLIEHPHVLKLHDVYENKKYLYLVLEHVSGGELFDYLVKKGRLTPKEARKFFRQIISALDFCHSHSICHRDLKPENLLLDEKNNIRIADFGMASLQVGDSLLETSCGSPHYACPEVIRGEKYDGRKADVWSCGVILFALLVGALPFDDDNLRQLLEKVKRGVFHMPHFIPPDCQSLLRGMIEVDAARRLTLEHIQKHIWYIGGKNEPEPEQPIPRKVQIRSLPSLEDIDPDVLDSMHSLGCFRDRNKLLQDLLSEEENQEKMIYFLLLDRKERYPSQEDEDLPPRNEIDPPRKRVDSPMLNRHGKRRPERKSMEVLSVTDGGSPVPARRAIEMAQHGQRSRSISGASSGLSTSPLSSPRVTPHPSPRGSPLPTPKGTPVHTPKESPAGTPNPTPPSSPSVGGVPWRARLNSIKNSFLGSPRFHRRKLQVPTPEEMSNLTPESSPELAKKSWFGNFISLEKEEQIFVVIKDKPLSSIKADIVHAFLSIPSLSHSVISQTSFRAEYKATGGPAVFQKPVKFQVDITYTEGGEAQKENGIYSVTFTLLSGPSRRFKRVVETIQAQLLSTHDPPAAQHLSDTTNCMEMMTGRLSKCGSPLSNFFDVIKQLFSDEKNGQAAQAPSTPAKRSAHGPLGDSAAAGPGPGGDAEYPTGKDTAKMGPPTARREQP
Chain of EPHB4 (human) (P54760 whole entry, looked up): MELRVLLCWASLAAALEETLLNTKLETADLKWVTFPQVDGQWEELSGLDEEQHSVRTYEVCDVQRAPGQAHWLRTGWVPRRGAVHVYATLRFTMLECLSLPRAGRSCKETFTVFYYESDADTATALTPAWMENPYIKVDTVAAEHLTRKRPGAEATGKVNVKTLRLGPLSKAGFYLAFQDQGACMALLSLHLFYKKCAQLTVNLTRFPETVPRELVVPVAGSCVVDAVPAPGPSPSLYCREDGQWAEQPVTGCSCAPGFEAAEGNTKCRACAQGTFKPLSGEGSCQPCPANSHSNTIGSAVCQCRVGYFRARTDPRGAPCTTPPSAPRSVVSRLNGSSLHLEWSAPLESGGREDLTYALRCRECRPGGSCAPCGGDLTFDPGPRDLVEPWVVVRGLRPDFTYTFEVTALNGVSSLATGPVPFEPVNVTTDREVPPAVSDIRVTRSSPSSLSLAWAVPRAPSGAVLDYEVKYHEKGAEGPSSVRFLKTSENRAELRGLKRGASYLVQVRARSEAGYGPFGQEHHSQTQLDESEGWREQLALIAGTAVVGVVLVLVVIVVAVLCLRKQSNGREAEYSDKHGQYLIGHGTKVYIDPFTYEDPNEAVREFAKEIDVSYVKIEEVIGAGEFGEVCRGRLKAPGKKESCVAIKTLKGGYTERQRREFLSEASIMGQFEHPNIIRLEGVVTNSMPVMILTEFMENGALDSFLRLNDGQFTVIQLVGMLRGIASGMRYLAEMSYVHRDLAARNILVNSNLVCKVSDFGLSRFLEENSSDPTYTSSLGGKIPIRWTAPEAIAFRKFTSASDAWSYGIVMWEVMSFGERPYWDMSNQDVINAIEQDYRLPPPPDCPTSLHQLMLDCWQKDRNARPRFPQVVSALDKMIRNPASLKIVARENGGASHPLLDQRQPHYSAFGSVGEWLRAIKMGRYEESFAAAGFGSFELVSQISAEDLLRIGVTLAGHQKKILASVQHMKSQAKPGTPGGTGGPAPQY
Chain of MINK1 (human) (Q8N4C8 whole entry, looked up): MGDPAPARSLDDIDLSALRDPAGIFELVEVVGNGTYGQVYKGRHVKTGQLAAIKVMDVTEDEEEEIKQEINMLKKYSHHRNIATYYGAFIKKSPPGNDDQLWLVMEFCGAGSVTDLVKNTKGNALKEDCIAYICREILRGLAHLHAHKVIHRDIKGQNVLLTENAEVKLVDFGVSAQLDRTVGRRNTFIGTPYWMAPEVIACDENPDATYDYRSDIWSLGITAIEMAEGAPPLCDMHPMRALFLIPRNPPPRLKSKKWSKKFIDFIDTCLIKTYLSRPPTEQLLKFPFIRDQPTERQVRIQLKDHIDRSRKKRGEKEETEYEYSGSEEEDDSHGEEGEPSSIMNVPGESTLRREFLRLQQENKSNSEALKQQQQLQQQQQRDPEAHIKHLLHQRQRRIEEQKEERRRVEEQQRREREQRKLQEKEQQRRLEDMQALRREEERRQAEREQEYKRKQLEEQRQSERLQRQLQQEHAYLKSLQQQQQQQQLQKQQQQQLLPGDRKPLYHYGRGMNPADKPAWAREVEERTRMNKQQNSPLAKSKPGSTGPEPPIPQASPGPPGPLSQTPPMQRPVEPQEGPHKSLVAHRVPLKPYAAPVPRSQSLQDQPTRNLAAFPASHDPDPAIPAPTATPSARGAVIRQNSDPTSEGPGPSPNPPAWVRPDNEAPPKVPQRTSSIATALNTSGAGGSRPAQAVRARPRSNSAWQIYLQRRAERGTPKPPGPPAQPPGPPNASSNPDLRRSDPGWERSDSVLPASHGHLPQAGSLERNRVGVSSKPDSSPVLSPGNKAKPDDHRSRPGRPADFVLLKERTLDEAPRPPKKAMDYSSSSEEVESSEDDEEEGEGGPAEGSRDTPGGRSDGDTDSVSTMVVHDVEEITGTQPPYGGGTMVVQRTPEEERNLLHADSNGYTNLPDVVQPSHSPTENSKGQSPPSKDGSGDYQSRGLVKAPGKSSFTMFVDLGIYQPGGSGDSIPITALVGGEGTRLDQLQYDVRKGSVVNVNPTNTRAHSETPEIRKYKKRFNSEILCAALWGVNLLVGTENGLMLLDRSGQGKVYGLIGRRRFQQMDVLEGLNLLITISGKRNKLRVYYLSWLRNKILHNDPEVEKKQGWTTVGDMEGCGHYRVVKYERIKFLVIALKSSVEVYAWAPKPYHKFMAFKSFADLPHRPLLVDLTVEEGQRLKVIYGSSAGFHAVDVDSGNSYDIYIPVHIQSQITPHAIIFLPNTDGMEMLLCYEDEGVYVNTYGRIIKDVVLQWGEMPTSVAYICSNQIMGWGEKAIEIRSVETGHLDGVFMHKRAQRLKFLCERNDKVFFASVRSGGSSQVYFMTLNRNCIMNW
Chain of CDK4 CCND1 (human) (P11802 whole entry, looked up): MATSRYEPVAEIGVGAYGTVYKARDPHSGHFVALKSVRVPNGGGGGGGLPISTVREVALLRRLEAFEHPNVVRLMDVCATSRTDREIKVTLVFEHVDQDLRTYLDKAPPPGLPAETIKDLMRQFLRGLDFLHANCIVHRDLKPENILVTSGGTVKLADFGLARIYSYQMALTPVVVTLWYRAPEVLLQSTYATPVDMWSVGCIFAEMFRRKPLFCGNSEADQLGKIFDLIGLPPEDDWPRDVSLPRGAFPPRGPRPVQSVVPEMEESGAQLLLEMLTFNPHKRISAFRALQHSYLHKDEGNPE
Chain of CDK4 CCND1 (human) (P24385 whole entry, looked up): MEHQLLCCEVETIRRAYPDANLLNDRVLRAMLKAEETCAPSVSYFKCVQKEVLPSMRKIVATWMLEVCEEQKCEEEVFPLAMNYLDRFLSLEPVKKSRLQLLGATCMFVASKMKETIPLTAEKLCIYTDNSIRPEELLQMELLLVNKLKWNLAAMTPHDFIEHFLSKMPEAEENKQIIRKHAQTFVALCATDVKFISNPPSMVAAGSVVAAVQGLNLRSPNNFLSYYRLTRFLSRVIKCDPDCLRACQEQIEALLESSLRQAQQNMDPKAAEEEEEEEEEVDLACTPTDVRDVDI
Chain of MAP3K14 (human) (Q99558 whole entry, looked up): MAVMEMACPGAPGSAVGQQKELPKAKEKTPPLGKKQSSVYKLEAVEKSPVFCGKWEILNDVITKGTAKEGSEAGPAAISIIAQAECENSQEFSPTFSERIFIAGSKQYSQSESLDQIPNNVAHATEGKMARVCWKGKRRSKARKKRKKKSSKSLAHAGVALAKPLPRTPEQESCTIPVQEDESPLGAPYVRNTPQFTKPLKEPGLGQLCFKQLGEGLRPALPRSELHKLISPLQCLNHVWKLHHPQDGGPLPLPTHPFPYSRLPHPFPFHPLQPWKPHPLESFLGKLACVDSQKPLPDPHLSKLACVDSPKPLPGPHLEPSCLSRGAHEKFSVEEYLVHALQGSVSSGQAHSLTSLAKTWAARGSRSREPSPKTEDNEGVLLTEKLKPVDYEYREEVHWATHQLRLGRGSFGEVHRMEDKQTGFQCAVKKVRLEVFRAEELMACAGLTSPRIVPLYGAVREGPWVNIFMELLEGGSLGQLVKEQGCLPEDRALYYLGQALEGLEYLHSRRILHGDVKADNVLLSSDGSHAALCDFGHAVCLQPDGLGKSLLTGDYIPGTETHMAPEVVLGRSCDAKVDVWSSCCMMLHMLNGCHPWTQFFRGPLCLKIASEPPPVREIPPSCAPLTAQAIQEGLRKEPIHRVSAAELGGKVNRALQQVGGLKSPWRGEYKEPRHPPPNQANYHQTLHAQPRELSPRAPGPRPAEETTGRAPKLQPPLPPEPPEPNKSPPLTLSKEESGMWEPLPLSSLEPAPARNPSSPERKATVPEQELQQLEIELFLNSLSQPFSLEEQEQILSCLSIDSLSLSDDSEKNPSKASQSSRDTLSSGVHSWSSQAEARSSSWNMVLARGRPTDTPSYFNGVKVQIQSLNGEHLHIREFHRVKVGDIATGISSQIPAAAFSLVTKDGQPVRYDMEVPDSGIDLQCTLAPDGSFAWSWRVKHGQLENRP
Chain of DAPK2 (human) (Q9UIK4 whole entry, looked up): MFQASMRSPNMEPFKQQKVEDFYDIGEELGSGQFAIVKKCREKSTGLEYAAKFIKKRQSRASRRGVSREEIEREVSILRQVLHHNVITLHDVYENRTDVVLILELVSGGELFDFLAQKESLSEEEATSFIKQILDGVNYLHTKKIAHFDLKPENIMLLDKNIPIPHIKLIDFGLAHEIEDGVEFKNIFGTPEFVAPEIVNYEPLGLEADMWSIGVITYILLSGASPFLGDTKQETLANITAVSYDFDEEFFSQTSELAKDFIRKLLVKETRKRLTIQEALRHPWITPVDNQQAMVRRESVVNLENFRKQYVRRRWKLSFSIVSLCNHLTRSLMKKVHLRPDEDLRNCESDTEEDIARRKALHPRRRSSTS

## NC(=O)c1cccc(-c2cc(Nc3ccc(OC(F)(F)F)cc3)ncn2)c1
BLK (human)
  residual activity: 103%
BRSK2 (human)
  residual activity: 93%
CDK4 CCND1 (human)
  residual activity: 99.8%
CHEK2 (human)
  residual activity: 101%
CLK4 (human)
  residual activity: 97.8%
CSF1R (human)
  residual activity: 94.1%
CSNK1D (human)
  residual activity: 99.1%
CSNK2A2 (human)
  residual activity: 92.7%
DAPK2 (human)
  residual activity: 99.1%
DDR2 (human)
  residual activity: 108%
DYRK1A (human)
  residual activity: 101%
EPHA5 (human)
  residual activity: 103%
EPHB4 (human)
  residual activity: 90.6%
ERBB2 (human)
  residual activity: 89.5%
FRK (human)
  residual activity: 95.5%
GRK4 (human)
  residual activity: 94.8%
HIPK4 (human)
  residual activity: 101%
IKBKE (human)
  residual activity: 107%
MAP2K1 (human)
  residual activity: 95.5%
MAP3K14 (human)
  residual activity: 103%
MAP4K4 (human)
  residual activity: 104%
MAPKAPK5 (human)
  residual activity: 94.3%
MARK2 (human)
  residual activity: 90.8%
MERTK (human)
  residual activity: 98.1%
MUSK (human)
  residual activity: 95.9%
NEK6 (human)
  residual activity: 97.4%
NEK9 (human)
  residual activity: 93.8%
PAK1 (human)
  residual activity: 93.3%
PASK (human)
  residual activity: 100%
PDGFRA (human)
  residual activity: 91.8%
PIM1 (human)
  residual activity: 101%
PIM2 (human)
  residual activity: 115%
PRKD1 (human)
  residual activity: 99.5%
RPS6KA5 KD2 (human)
  residual activity: 104%
SRMS (human)
  residual activity: 93.4%
SRPK2 (human)
  residual activity: 105%
TGFBR2 (human)
  residual activity: 94.9%
TSSK2 (human)
  residual activity: 97%
ULK2 (human)
  residual activity: 103%
WNK2 (human)
  residual activity: 115%

## COc1cc(Nc2c(C#N)cnc3cc(OCCCN4CCN(C)CC4)c(OC)cc23)c(Cl)cc1Cl
BLK (human)
  residual activity: 20.7%
BRSK2 (human)
  residual activity: 94.2%
CDK4 CCND1 (human)
  residual activity: 97.1%
CHEK2 (human)
  residual activity: 21.7%
CLK4 (human)
  residual activity: 76.6%
CSF1R (human)
  residual activity: 43.1%
CSNK1D (human)
  residual activity: 10.9%
CSNK2A2 (human)
  residual activity: 108%
DAPK2 (human)
  residual activity: 82.9%
DDR2 (human)
  residual activity: 105%
DYRK1A (human)
  residual activity: 99.4%
EPHA5 (human)
  residual activity: 37.1%
EPHB4 (human)
  residual activity: 12.5%
ERBB2 (human)
  residual activity: 32.9%
FRK (human)
  residual activity: 29.2%
GRK4 (human)
  residual activity: 92.4%
HIPK4 (human)
  residual activity: 74.6%
IKBKE (human)
  residual activity: 75.4%
MAP3K14 (human)
  residual activity: 129%
MAP4K4 (human)
  residual activity: 1.03%
MAPKAPK5 (human)
  residual activity: 94.7%
MARK2 (human)
  residual activity: 99.9%
MERTK (human)
  residual activity: 28.9%
MINK1 (human)
  residual activity: 1.21%
MUSK (human)
  residual activity: 81.7%
NEK6 (human)
  residual activity: 85.3%
NEK9 (human)
  residual activity: 94%
PAK1 (human)
  residual activity: 11.7%
PASK (human)
  residual activity: 109%
PDGFRA (human)
  residual activity: 86.9%
PIM1 (human)
  residual activity: 99.2%
PIM2 (human)
  residual activity: 111%
PRKD1 (human)
  residual activity: 43.7%
RPS6KA5 KD2 (human)
  residual activity: 90.8%
SRMS (human)
  residual activity: 90.6%
SRPK2 (human)
  residual activity: 101%
TGFBR2 (human)
  residual activity: 95.7%
TSSK2 (human)
  residual activity: 83.9%
ULK2 (human)
  residual activity: 92.2%
WNK2 (human)
  residual activity: 94.2%

## CS(=O)(=O)CCNCc1ccc(-c2ccc3ncnc(Nc4ccc(OCc5cccc(F)c5)c(Cl)c4)c3c2)o1
BLK (human)
  residual activity: 95.9%
BRSK2 (human)
  residual activity: 106%
CDK4 CCND1 (human)
  residual activity: 94.8%
CHEK2 (human)
  residual activity: 96.8%
CLK4 (human)
  residual activity: 115%
CSF1R (human)
  residual activity: 106%
CSNK1D (human)
  residual activity: 91.2%
CSNK2A2 (human)
  residual activity: 101%
DAPK2 (human)
  residual activity: 103%
DDR2 (human)
  residual activity: 107%
DYRK1A (human)
  residual activity: 101%
EPHA5 (human)
  residual activity: 103%
EPHB4 (human)
  residual activity: 94.1%
FRK (human)
  residual activity: 104%
GRK4 (human)
  residual activity: 90.3%
HIPK4 (human)
  residual activity: 108%
IKBKE (human)
  residual activity: 94.9%
MAP2K1 (human)
  residual activity: 105%
MAP3K14 (human)
  residual activity: 109%
MAP4K4 (human)
  residual activity: 111%
MAPK9 (human)
  residual activity: 98.1%
MAPKAPK5 (human)
  residual activity: 92.8%
MARK2 (human)
  residual activity: 137%
MERTK (human)
  residual activity: 95.4%
MINK1 (human)
  residual activity: 111%
MUSK (human)
  residual activity: 96.5%
NEK6 (human)
  residual activity: 93.7%
NEK9 (human)
  residual activity: 100%
PAK1 (human)
  residual activity: 110%
PASK (human)
  residual activity: 101%
PDGFRA (human)
  residual activity: 108%
PIM1 (human)
  residual activity: 99%
PIM2 (human)
  residual activity: 102%
PRKD1 (human)
  residual activity: 99.4%
RPS6KA5 KD2 (human)
  residual activity: 98.3%
SRMS (human)
  residual activity: 97.9%
SRPK2 (human)
  residual activity: 88%
TGFBR2 (human)
  residual activity: 96.1%
TSSK2 (human)
  residual activity: 89.9%
ULK2 (human)
  residual activity: 104%
WNK2 (human)
  residual activity: 102%

## CN(C)CCCn1cc(C2=C(c3c[nH]c4ccccc34)C(=O)NC2=O)c2ccccc21
BLK (human)
  residual activity: 87%
BRSK2 (human)
  residual activity: 55.6%
CDK4 CCND1 (human)
  residual activity: 60.7%
CHEK2 (human)
  residual activity: 68.5%
CLK4 (human)
  residual activity: 44.8%
CSF1R (human)
  residual activity: 76.7%
CSNK1D (human)
  residual activity: 97.6%
CSNK2A2 (human)
  residual activity: 92%
DAPK2 (human)
  residual activity: 105%
DDR2 (human)
  residual activity: 111%
DYRK1A (human)
  residual activity: 54.7%
EPHA5 (human)
  residual activity: 92%
EPHB4 (human)
  residual activity: 86.8%
ERBB2 (human)
  residual activity: 96.5%
FRK (human)
  residual activity: 92.3%
GRK4 (human)
  residual activity: 84.5%
HIPK4 (human)
  residual activity: 113%
IKBKE (human)
  residual activity: 89.4%
MAP2K1 (human)
  residual activity: 83.6%
MAP3K14 (human)
  residual activity: 110%
MAP4K4 (human)
  residual activity: 55.9%
MAPK9 (human)
  residual activity: 98.7%
MAPKAPK5 (human)
  residual activity: 93.7%
MARK2 (human)
  residual activity: 71.7%
MERTK (human)
  residual activity: 92.1%
MINK1 (human)
  residual activity: 92.1%
MUSK (human)
  residual activity: 71.9%
NEK6 (human)
  residual activity: 96.3%
NEK9 (human)
  residual activity: 100%
PAK1 (human)
  residual activity: 84.2%
PASK (human)
  residual activity: 67%
PDGFRA (human)
  residual activity: 69.2%
PIM2 (human)
  residual activity: 64.1%
PRKD1 (human)
  residual activity: 71.6%
RPS6KA5 KD2 (human)
  residual activity: 17%
SRMS (human)
  residual activity: 104%
SRPK2 (human)
  residual activity: 94.4%
TGFBR2 (human)
  residual activity: 90.4%
TSSK2 (human)
  residual activity: 97.3%
ULK2 (human)
  residual activity: 145%
WNK2 (human)
  residual activity: 107%

## Fc1ccc(-c2nc3n(c2-c2ccncc2)CCS3)cc1
BLK (human)
  residual activity: 97.8%
CDK4 CCND1 (human)
  residual activity: 114%
CHEK2 (human)
  residual activity: 97.7%
CLK4 (human)
  residual activity: 106%
CSF1R (human)
  residual activity: 103%
CSNK1D (human)
  residual activity: 6.99%
CSNK2A2 (human)
  residual activity: 105%
DAPK2 (human)
  residual activity: 113%
DDR2 (human)
  residual activity: 94.9%
DYRK1A (human)
  residual activity: 97.5%
EPHA5 (human)
  residual activity: 89.7%
EPHB4 (human)
  residual activity: 88%
ERBB2 (human)
  residual activity: 105%
FRK (human)
  residual activity: 104%
GRK4 (human)
  residual activity: 95.7%
HIPK4 (human)
  residual activity: 89.7%
IKBKE (human)
  residual activity: 101%
MAP2K1 (human)
  residual activity: 93.6%
MAP3K14 (human)
  residual activity: 103%
MAP4K4 (human)
  residual activity: 72.3%
MAPK9 (human)
  residual activity: 90.6%
MAPKAPK5 (human)
  residual activity: 97.2%
MARK2 (human)
  residual activity: 96.4%
MERTK (human)
  residual activity: 88.7%
MINK1 (human)
  residual activity: 97.7%
MUSK (human)
  residual activity: 91.1%
NEK6 (human)
  residual activity: 98.7%
NEK9 (human)
  residual activity: 102%
PAK1 (human)
  residual activity: 96.1%
PASK (human)
  residual activity: 109%
PDGFRA (human)
  residual activity: 98%
PIM1 (human)
  residual activity: 104%
PIM2 (human)
  residual activity: 121%
PRKD1 (human)
  residual activity: 90.2%
SRMS (human)
  residual activity: 102%
TGFBR2 (human)
  residual activity: 137%
TSSK2 (human)
  residual activity: 93.2%
ULK2 (human)
  residual activity: 106%
WNK2 (human)
  residual activity: 104%
